Data reported in article PMC11855827, “High-Throughput Screening of Five Compound Libraries for Anthelmintic Activity and Toxicity Leads to the Discovery of Two Flavonoid Compounds” (International Journal of Molecular Sciences, 2025).
Like-named read-outs stand apart in the source and are kept apart here.

System: C. elegans
Experiment: microbe, parasite or virus in culture
Details: Caenorhabditis elegans
[1] = 0 h, read-out: Percentage of motility inhibition 0 h, Table S2, C. elegans SS assay, 110 μM, 0 h, averages of 4 data points
[2] = 24 h, read-out: Percentage of motility inhibition 24 h, Table S2, C. elegans SS assay, 110 μM, 24 h, averages of 4 data points
[3] = 0 h, read-out: Percentage of motility inhibition 0 h
[4] = 24 h, read-out: Percentage of motility inhibition 24 h

Row | SMILES | inhibition at 110 µM [1] | inhibition at 110 µM [2] | inhibition at 110 µM [3] | inhibition at 110 µM [4]
1 | COc1cc(/C=C/C(=O)O[C@H]2CC[C@]34C[C@]35CC[C@]3(C)[C@@H]([C@H](C)CCC=C(C)C)CC[C@@]3(C)[C@@H]5CC[C@H]4C2(C)C)ccc1O [Cycloartenyl ferulate] | 35% | 21% |  | 
2 | C[C@@H]1C[C@@H]([C@H](O)CC2CC(=O)NC(=O)C2)C(=O)[C@@H](C)C1 [Cycloheximide] | 17% | 0% |  | 
3 | CC1=C2C[C@H]3[C@@H](CC=C4C[C@@H](O)CC[C@@]43C)[C@@H]2CC[C@]12O[C@@H]1C[C@H](C)CN[C@H]1[C@H]2C [Cyclopamine] |  |  | 0% | 14%
4 | CC(=O)C1=C(O)[C@@H]2[C@H]3c4c[nH]c5cccc(c45)C[C@H]3C(C)(C)N2C1=O [Cyclopiazonic acid] | 6% | 2% |  | 
5 | CC(C1CC1)C(O)(Cn1cncn1)c1ccc(Cl)cc1 (stereo not drawn) [Cyproconazole] | 42% | 0% |  | 
6 | Nc1ccn([C@@H]2O[C@H](CO)[C@@H](O)[C@H]2O)c(=O)n1 [Cytidine] | 12% | 5% |  | 
7 | OC[C@@H](O)[C@@H](O)[C@H](O)[C@H](O)CO [D-Mannitol] | 11% | 0% |  | 
8 | CC(C)(CO)[C@@H](O)C(=O)NCCC(=O)O [D-Pantothenic acid] | 9% | 10% |  | 
9 | OC[C@@H](O)[C@@H](O)[C@H](O)[C@@H](O)CO [D-Sorbitol] | 0% | 7% |  | 
10 | COC(=O)N[C@H](C(=O)N1CCC[C@H]1c1nc(-c2ccc(-c3ccc(-c4c[nH]c([C@@H]5CCCN5C(=O)[C@@H](NC(=O)OC)C(C)C)n4)cc3)cc2)c[nH]1)C(C)C [Daclatasvir] | 44% | 43% |  | 
11 | C=C(CCC=C(C)C)[C@H]1CC[C@]2(C)[C@@H]1[C@H](O)C[C@@H]1[C@@]3(C)C[C@@H](O)[C@H](O[C@@H]4O[C@H](CO)[C@@H](O)[C@H](O)[C@H]4O[C@@H]4O[C@H](CO)[C@@H](O)[C@H](O)[C@H]4O)C(C)(C)[C@@H]3CC[C@]12C [Damulin B] | 9% | 16% |  | 
12 | CC(C)(C)OC(=O)N[C@H]1CCCCC/C=C\[C@@H]2C[C@@]2(C(=O)NS(=O)(=O)C2CC2)NC(=O)[C@@H]2C[C@@H](OC(=O)N3Cc4cccc(F)c4C3)CN2C1=O [Danoprevir] | 60% | 24% |  | 
13 | O=C1c2cccc(O)c2C(=O)c2c(O)cccc21 [Danthron] | 21% | 9% |  | 
14 | O=c1ccc2ccc(O)c(O)c2o1 [Daphnetin] | 0% | 1% |  | 
15 | Cc1cc(C)c(Nc2ccnc(Nc3ccc(C#N)cc3)n2)c(C)c1 [Dapivirine] | 44% | 4% |  | 
16 | Nc1ccc(S(=O)(=O)c2ccc(N)cc2)cc1 [Dapsone] | 42% | 24% |  | 
17 | CCCCCCCCCC(=O)N[C@@H](Cc1c[nH]c2ccccc12)C(=O)N[C@H](CC(N)=O)C(=O)N[C@@H](CC(=O)O)C(=O)N[C@@H]1C(=O)NCC(=O)N[C@@H](CCCN)C(=O)N[C@@H](CC(=O)O)C(=O)N[C@H](C)C(=O)N[C@@H](CC(=O)O)C(=O)NCC(=O)N[C@H](CO)C(=O)N[C@@H]([C@H](C)CC(=O)O)C(=O)N[C@@H](CC(=O)c2ccccc2N)C(=O)O[C@@H]1C [Daptomycin] | 3% | 8% |  | 
18 | CC(C)CN(C[C@@H](O)[C@H](Cc1ccccc1)NC(=O)O[C@H]1CO[C@H]2OCC[C@H]21)S(=O)(=O)c1ccc(N)cc1 [Darunavir] |  |  | 39% | 26%
19 | CC1(C)[C@H](O)CC[C@@]2(C)[C@@H]3CC[C@](C)([C@@H](O)CO[C@@H]4O[C@H](CO)[C@@H](O)[C@H](O)[C@H]4O)C=C3CC[C@H]12 [Darutoside] | 2% | 9% |  | 
20 | COc1cc2c(cc1OC)[C@@H](Cc1ccc(Oc3cc(C[C@@H]4c5cc(OC)c(OC)cc5CCN4C)ccc3O)cc1)N(C)CC2 [Dauricine] |  |  | 2% | 9%
21 | CCCCCCCCCCOc1cc2c(O)c(C(=O)OCC)cnc2cc1OCC [Decoquinate] | 13% | 1% |  | 
22 | COc1cc2c(cc1OC)[C@@H]1C(=O)c3ccc4c(c3O[C@@H]1CO2)C=CC(C)(C)O4 [Deguelin] | 0% | 0% |  | 
23 | CC(C)c1ccc2c(c1)CC[C@H]1[C@](C)(C(=O)O)CCC[C@]21C [Dehydroabietic acid] | 4% | 17% |  | 
24 | CC(=O)C1C(=O)C=C(C)OC1=O (stereo not drawn) [Dehydroacetic acid] | 45% | 17% |  | 
25 | COc1cc2c(cc1OC)-c1c(C)c3ccc(OC)c(OC)c3c[n+]1CC2 [Dehydrocorydaline] | 4% | 0% |  | 
26 | C=C1CC[C@H]2C(=C)CC[C@H]3C(=C)C(=O)O[C@@H]3[C@@H]12 [Dehydrocostus Lactone] | 0% | 24% |  | 

Row | SMILES | inhibition at 110 µM [1] | inhibition at 110 µM [2] | inhibition at 110 µM [3] | inhibition at 110 µM [4]
27 | COc1cc2c3c(cc4ccccc4c3c1OC)N(C)CC2 [Dehydronuciferine] | 6% | 6% |  | 
28 | C=C(CC[C@@H](C(=O)O)[C@H]1[C@H](O)C[C@@]2(C)C3=CC[C@H]4C(C)(C)[C@@H](O)CC[C@]4(C)C3=CC[C@]12C)C(C)C [Dehydrotumulosic acid] | 11% | 21% |  | 
29 | C[C@]1(COc2ccc(N3CCC(Oc4ccc(OC(F)(F)F)cc4)CC3)cc2)Cn2cc([N+](=O)[O-])nc2O1 [Delamanid] | 42% | 21% |  | 
30 | CCN1C[C@]2(COC)CC[C@H](O)[C@]34C1[C@@](O)([C@@H](OC)[C@H]23)[C@@]1(O)C[C@H](OC)[C@H]2C[C@@H]4[C@@H]1[C@H]2OC [Delsoline] | 5% | 0% |  | 
31 | CCN1C[C@]2(C)CC[C@H](OC)[C@@]34C1[C@]1(OCO[C@@]15C[C@H](OC)[C@H]1C[C@]3(O)[C@@H]5[C@H]1OC)[C@@H](OC(C)=O)[C@H]24 [Deltaline] | 0% | 0% |  | 
32 | C[C@H](CCC(=O)O)[C@H]1CC[C@H]2[C@@H]3CC[C@@H]4C[C@H](O)CC[C@]4(C)[C@H]3C[C@H](O)[C@]12C [Deoxycholic acid] | 29% | 12% |  | 
33 | C[C@H]1O[C@@H](O[C@H]2CC[C@@]3(C)[C@H](CC[C@@H]4[C@@H]3C[C@@H](O)[C@]3(C)[C@@H](C5=CC(=O)OC5)CC[C@]43O)C2)C[C@H](O)[C@@H]1O[C@H]1C[C@H](O)[C@H](O[C@H]2C[C@H](O)[C@H](O[C@@H]3O[C@H](CO)[C@@H](O)[C@H](O)[C@H]3O)[C@@H](C)O2)[C@@H](C)O1 [Deslanoside] | 5% | 5% |  | 
34 | CC(=O)Oc1cccc2c1C(=O)c1c(OC(C)=O)cc(C(=O)O)cc1C2=O [Diacerein] | 0% | 8% |  | 
35 | COc1ccc(Cc2cnc(N)nc2N)cc1OC [Diaveridine] | 17% | 32% |  | 
36 | Oc1ccc(Cl)cc1Cc1cc(Cl)ccc1O [Dichlorophen] | 15% | 0% |  | 
37 | N#CC(c1ccc(Cl)cc1)c1c(Cl)cc(-n2ncc(=O)[nH]c2=O)cc1Cl (stereo not drawn) [Diclazuril] | 28% | 44% |  | 
38 | O=c1[nH]cnc2c1ncn2[C@H]1CC[C@@H](CO)O1 [Didanosine] | 22% | 7% |  | 
39 | C[C@H]1O[C@@H](O[C@H]2[C@@H](O)C[C@H](O[C@H]3[C@@H](O)C[C@H](O[C@H]4CC[C@@]5(C)[C@H](CC[C@@H]6[C@@H]5CC[C@]5(C)[C@@H](C7=CC(=O)OC7)CC[C@]65O)C4)O[C@@H]3C)O[C@@H]2C)C[C@H](O)[C@@H]1O [Digitoxin] | 0% | 3% |  | 
40 | COc1cc(CNC(=O)CCCCCCC(C)C)ccc1O [Dihydrocapsaicin] | 0% | 7% |  | 
41 | COc1ccc2c(c1OC)CN(C)c1c-2ccc2cc3c(cc12)OCO3 [Dihydrochelerythrine] | 0% | 7% |  | 
42 | O=C1c2c(O)cc(O)cc2O[C@H](c2ccc(O)cc2)[C@H]1O [Dihydrokaempferol] | 2% | 0% |  | 
43 | O=C1c2c(O)cc(O)cc2O[C@H](c2cc(O)c(O)c(O)c2)[C@H]1O [Dihydromyricetin] | 33% | 16% |  | 
44 | CN1Cc2c(ccc3c2OCO3)-c2ccc3cc4c(cc3c21)OCO4 [Dihydrosanguinarine] | 0% | 0% |  | 
45 | Oc1c(I)cc(I)c2cccnc12 [Diiodohydroxyquinoline] | 38% | 40% |  | 
46 | Cc1ncc([N+](=O)[O-])n1C [Dimetridazole] | 0% | 14% |  | 
47 | Cc1c(C(N)=O)cc([N+](=O)[O-])cc1[N+](=O)[O-] [Dinitolmide] | 16% | 14% |  | 
48 | CN/C(=N/CC1CCOC1)N[N+](=O)[O-] (stereo not drawn) [Dinotefuran] |  |  | 7% | 0%
49 | COc1ccc(-c2cc(=O)c3c(O)cc(O)cc3o2)cc1O [Diosmetin] |  |  | 13% | 0%
50 | CC[C@H]1OC(=O)[C@H](C)[C@@H](O[C@H]2C[C@@](C)(OC)[C@@H](O)[C@H](C)O2)[C@H](C)[C@@H](O[C@@H]2O[C@H](C)C[C@H](N(C)C)[C@H]2O)[C@](C)(O)C[C@@H](C)[C@@H]2N[C@@H](COCCOC)O[C@H]([C@H]2C)[C@]1(C)O [Dirithromycin] | 3% | 0% |  | 
51 | CC(=O)O[C@@]12CO[C@@H]1C[C@H](O)[C@@]1(C)C(=O)[C@H](O)C3=C(C)[C@@H](OC(=O)[C@H](O)[C@@H](NC(=O)OC(C)(C)C)c4ccccc4)C[C@@](O)([C@@H](OC(=O)c4ccccc4)[C@H]21)C3(C)C [Docetaxel] | 1% | 15% |  | 
